The data set is described as follows: Metabolic stability of test compounds using human liver microsomes. The data set is classed as in vitro ADME. The note with it: for differentiation of t1/2 (longer) as compared to udenafil: human liver microsomes, assay conditions 0.5 mg/mL, 1 µM test compd; for half-life at 1 µM: pooled human liver microsomes, in vitro t1/2, 0.5 mg/mL human liver microsomes, 1 μM test compound, 2 mM NADPH, pH 7.4, 37° C., experiment run an additional three times, read-out: Avg t1/2 (min) ± SD. As to the method: Determination of Metabolic Stability of Test Compounds using Human Liver Microsomes. The metabolic stability of compounds of the invention was tested using pooled liver microsomal incubations. Full scan LC-MS analysis was then performed to detect major metabolites. Samples of the test compounds, exposed to pooled human liver microsomes, were analyzed using HPLC-MS (or MS/MS) detection. For determining metabolic stability, multiple reaction monitoring (MRM) was used to measure the disappearance of the test compounds. For metabolite detection, Q1 full scans were used as survey scans to detect the major metabolites.
Experimental Procedures. Human liver microsomes (“HLM”; 20 mg/mL) were obtained from Xenotech, LLC (Lenexa, Kans.). β-nicotinamide adenine dinucleotide phosphate, reduced form (NADPH), magnesium chloride (MgCl2), and dimethyl sulfoxide (DMSO) were purchased from Sigma-Aldrich.
Stock solutions (7.5 mM) of Compounds 100, 103, 108 and 210 and udenafil were prepared in DMSO. The 7.5 mM stock solutions were diluted to 50 μM in acetonitrile (ACN). The 20 mg/mL human liver microsomes were diluted to 0.625 mg/mL in 0.1 M potassium phosphate buffer, pH 7.4, containing 3 mM MgCl2. The diluted microsomes (375 μL) were added to wells of a 96-well deep-well polypropylene plate in triplicate. Ten μL of the 50 μM test compound solution was added to the microsomes and the mixture was pre-warmed for 10 minutes. Reactions were initiated by addition of 125 μL of pre-warmed NADPH solution (8 mM NADPH in 0.1M potassium phosphate buffer, pH 7.4, containing 3 mM MgCl2). […] The reaction mixtures were incubated at 37° C., and 50 μL aliquots were removed at 0, 5, 10, 20, and 30 minutes and added to shallow-well 96-well plates which contained […] of ice-cold ACN with internal standard to stop the reactions. The plates were stored at 4° C. for 20 minutes after which […] of water was added to the wells of the plate before centrifugation to pellet precipitated proteins. Supernatants were transferred to another 96-well plate and analyzed for amounts of parent remaining by LC-MS/MS using an Applied Bio-systems API 4000 mass spectrometer.
The in vitro t1/2s for test compounds were calculated from the slopes of the linear regression of % parent remaining (ln) vs incubation time relationship using the following formula:
in vitro t1/2=0.693/k, where k=−[slope of linear regression of % parent remaining(ln) vs incubation time]. Data analysis was performed using Microsoft Excel Software.
A general note: Liver microsomes are a subcellular fraction often used to study metabolism.

This is an account of results in US20090197899A1, “3-(Dihydro-1H-pyrazolo[4,3-d]pyrimidin-5-yl)-4-propoxybenzenesulfonamide Derivatives and Methods of Use” (Concert Pharmaceuticals Inc., priority 2006, published 2009).

As to `[2H]C([2H])(CC1CCCN1C)NS(=O)(=O)c1ccc(OCCC)c(-c2nc3c(CCC)nn(C([2H])([2H])[2H])c3c(=O)[nH]2)c1` (stereo not shown) [Compound 100], the “differentiation of t1/2 (longer) as compared to udenafil” value is given as approximately 20% and the half-life at 1 µM worked out at 41.3 ± 1.5 min.
In the case of `[2H]C([2H])(CC1CCCN1C)NS(=O)(=O)c1ccc(OCCC)c(-c2nc3c(CCC)nn(C)c3c(=O)[nH]2)c1` (stereo not shown) [Compound 103], the half-life at 1 µM is 37.2 ± 1.8 min.
Still for that read-out and setting: with `[2H]C([2H])([2H])n1nc(CCC)c2nc(-c3cc(S(=O)(=O)NCCC4CCCN4C)ccc3OCCC)[nH]c(=O)c21` (stereo not shown) [Compound 108] the figure was 36.2 ± 1.5 min.
For `[2H]C([2H])(CC1CCCN1C)NS(=O)(=O)c1ccc(OC([2H])([2H])C([2H])([2H])C([2H])([2H])[2H])c(-c2nc3c(CC([2H])([2H])C([2H])([2H])[2H])nn(C([2H])([2H])[2H])c3c(=O)[nH]2)c1` (stereo not shown) [Compound 210, 3-(1-(Methyl-d3)-7-oxo-3-(2,2,3,3,3-d5-propyl)-6,7-dihydro-1H-pyrazolo[4,3-d]pyrimidin-5-yl)-N-(2-(1-methylpyrrolidin-2-yl)-1,1-d2-ethyl)-4-(propoxy-d7)-benzenesulfonamide], the “differentiation of t1/2 (longer) as compared to udenafil” value is approximately 20% and the half-life at 1 µM came out at 42.4 ± 3.74 min.
With `CCCOc1ccc(S(=O)(=O)NCCC2CCCN2C)cc1-c1nc2c(CCC)nn(C)c2c(=O)[nH]1` (stereo not shown) [Udenafil, 3-(1-methyl-7-oxo-3-propyl-6,7-dihydro-1H-pyrazolo[4,3-d]pyrimidin-5-yl)-N-[2-(1-methylpyrrolidin-2-yl)ethyl]-4-propoxybenzenesulfonamide, reference compound], the half-life at 1 µM was determined as 33.6 ± 2.2 min.
